Measured values taken from patent EP1764363A2, “Substituted acetophenonederivatives” (Riemser Arzneimittel AG, priority 2005, dated 2007).
Converted amounts (≈) assume the structure as drawn. “And” between values parts separate entries of the source, which are not always exact repeats. Equal entries are not always repeated. Marks after values point to notes of the source that are not given here.

What was measured:
[1] = Radical scavenger screening with DPPH radicals (DPPH test); settings: Konzentrationen 500 und 1000µg/ml
Source text: […] die 6 Verbindungen HMF2, HMF-3, CH-1, L5, Q20 und […]. Die […] durch den DPPH-Test ermittelt, wobei sich die UV/VIS-Absorption des freien stabilen […] (Diphenyl-β-picrylhydrazin) in Abhängigkeit vom Zustand von […]. Die Auswertung erfolgt qualitativ (dünnschichtchromatographisch) und quantitativ (photometrisch) mit Ascorbinsäure […] Molyneux P. (2004) The use of the stabel free radical diphenylpicrylhydrazyl (DPPH) for estimating antioxidant activity. Songklanakarin J Sci Technol. 26(2): 211-219).

[2] = test system: Staphylococcus aureus (Stamm ATCC 6538); assay: Mouse ear test (in vivo), antiseptic effect; set-up: key to Keimwachstum (grade): +++: totale Verhinderung des Keimwachstums; ++: Keimwachstum deutlich reduziert aber nicht völlig unterdrückt; settings: mouse ears infected with S. aureus ATCC 6538; germ count vs infected untreated animal after 18 and 24 h
[3] = test system: Micrococcus luteus; assay: Minimal inhibitory concentration (MHK), microtitre plate, TTC staining; assay type: cell-based; settings: 48h, 36°C
[4] = test system: Salmonella sp; assay: as above; assay type: cell-based; settings: 48h, 36°C
Source text: Das Inokulum für die Tests wurde durch Verdünnung der Mikroorganismen in wässriger 0,85% NaCI-Lösung hergestellt, die Verdünnung auf die Stufe 0,5 nach McFarland eingestellt und die Konzentration spektrometrisch bei einer Wellenlänge von 580nm überprüft. Die Zellsuspensionen wurden zur Verwendung in den Tests auf 10^4 UFC/ml verdünnt. Die MHK-Tests erfolgten (Vorschrift nach J. N. P. Eloff, Planta Medica, Vol. 64, 1998, p 711-713) in Mikrotiterplatten mit 96 Vertiefungen. Serienverdünnungen der Konzentrationen lagen im Bereich 1,00 - 0,0015 mg/mL. Als Kontrollsubstanzen dienten Chloramphenicol bzw. Nistatin (Merck) in einer Konzentration von 0,062 - 0,005 mg/ml bzw. 0,0125 - 0,001 mg/ml. Das Inokulum (100 µl) wurde in alle Vertiefungen gegeben und die Platten für 48h bei 36°C inkubiert. Die antimikrobielle Aktivität wurde durch Zugabe von 20 µl einer 0,5% igen wässrigen Lösung von TTC (Tetrazoliumchlorid, Merck) pro Vertiefung detektiert. Die minimale Hemmkonzentration (MHK) wird als die niedrigste Konzentration der Verbindung definiert die das sichtbare Wachstum hemmt (durch TTC-Färbung indiziert).

[5] = test system: S. falcium; assay: as above; assay type: cell-based; settings: 48h, 36°C
[6] = test system: Escherichia coli; assay: as above; assay type: cell-based; settings: 48h, 36°C
[7] = test system: Bacillus subitilis; assay: as above; assay type: cell-based; settings: 48h, 36°C
[8] = test system: Rhodococcus equi; assay: as above; assay type: cell-based; settings: 48h, 36°C
[9] = test system: S. epidermides; assay: as above; assay type: cell-based; settings: 48h, 36°C
[10] = test system: S. aureus; assay: as above; assay type: cell-based; settings: 48h, 36°C
[11] = test system: E. faecium; assay: as above; assay type: cell-based; settings: 48h, 36°C
[12] = test system: Candida albicans; assay: as above; assay type: cell-based; settings: 48h, 36°C
[13] = test system: SW620; assay: Chemosensitivity test (modified MTT test EZ4U); settings: Homo sapiens, SW-620, 96 h, read-out: IC50-Werte
Method: (§1) Die Verbindungen wurden in Dimethylsulfoxid (DMSO) als konzentrierte Stammlösungen (100-400fach) gelöst und für Proliferationstests in Zellkulturmedium verdünnt.
(§2) Die Zellen wurden auf Verunreinigung durch Mycoplasmen untersucht. Das Medium wurde mit 10% hitzeinaktiviertem foetalem Kälberserum (Seromed) and 4 mM Glutamin ergänzt. Die Zellen wurden durch Trypsinierung subkultiviert (0.03% Trypsin enthaltend 0.02% EDTA, dreimal pro Woche). Die Trypsinierung wurde durch Verwendung vom komplettem Zellkulturmedium gestoppt. Die Zellzahl wurde unter Verwendung eines TOA Sysmex Microzellzählers (TOA, Tokyo, Japan) bestimmt.
(§3) 10^4 Zellen/well wurden in Mikrotiterplatten mit 96 Vertiefungen (100 µl Medium) verteilt und die zu testenden Verbindungen wurden in einem weiteren Volumen von 100 µl hinzugegeben. Alle Verbindungen wurden entweder in 3 fixen Konzentrationen eingesetzt (für Tabellen 1-3) oder in 10 Stufen verdünnt unter Verwendung von Zweifachverdünnungsschritten zur Bestimmung der IC50-Werte (dreifache Ansätze, in den meisten Fällen vierfache Ansätze). Die Platten wurden, mit der Ausnahme der Tests zur Untersuchung des Zusammenhangs von Applikationsdauer und Zellreaktion, 4 Tage lang unter Zellkulturbedingungen inkubiert und die Zellviabilität wurde unter Verwendung eines modifizierten MTT Tests bestimmt (Formazan-Farbstoffbildung aus Tetrazoliumsalzen wie MTT, XTT, WST-1 und anderen durch das mitochondriale Reduktionsystem Succinattetrazolium Reductase EC 1.3.99.1.; EZ4U nichtradioaktiver Zellproliferations- und Cytotoxizitätstest, Biomedica, Wien, Österreich; Testmanual unter: www.bmgrp.com). Hierbei wurde die mitochondriale Aktivität und dadurch die Zellviabilität/Zellzahl bestimmt. Kurz gesagt wurde das gelieferte Substrat in einer Aktivatorlösung gelöst und 20 µl der Mischung wurden für 2 Stunden pro Vertiefung hinzugegeben (Gesamtvolumen 200 µl). Die optische Dichte wurde bei 450 nm unter Verwendung einer leeren Vertiefung als Referenz in einem Mikroplattenlesegerät (Eurogenetics, Brüssel, Belgien) bestimmt. Für jede Zell-Line wurden Vertiefungen verwendet um das MTT-Signal der Mediumkontrollen ohne Testsubstanzen zu bestimmen. Die Proliferation in den Test-Vertiefungen wurde in Bezug auf diese Kontrollwerte (100%) errechnet. Die Testergebnisse wurden zwischen 0,3 und 1,5 optischer Dichte für langsam bzw. schnellproliferierende Zellen erfasst. Diese Dosis-Wirkungs-Beziehungen wurden verwendet um die IC50 (Konzentration bei der das Wachstum um 50% gehemmt wird) unter Verwendung von PRISM Scientific Software (GraphPad Inc., San Diego, CA) zu berechnen.

[14] = test system: CaCo-2; assay: Chemosensitivity test (modified MTT test EZ4U); settings: Homo sapiens, Caco-2, 96 h, read-out: IC50-Werte
Method: as §1, §2, §3

[15] = test system: WI38; assay: Chemosensitivity test (modified MTT test EZ4U); settings: Homo sapiens, WI-38, 96 h, read-out: IC50-Werte
Method: as §1, §2, §3

[16] = test system: CRO2B; assay: Chemosensitivity test (modified MTT test EZ4U); settings: Homo sapiens, 96 h, read-out: IC50-Werte
Method: as §1, §2, §3

[17] = test system: MIAPaCa2; assay: Chemosensitivity test (modified MTT test EZ4U); settings: Homo sapiens, MIA PaCa-2, 96 h, read-out: IC50-Werte
Method: as §1, §2, §3

[18] = test system: DU 145; assay: Chemosensitivity test (modified MTT test EZ4U); settings: Homo sapiens, DU-145, 96 h, read-out: IC50-Werte
Source text: as §1
(§4) Mit Ausnahme von SIM, KAL Ewingsarkom (in Wien etabliert) und LAN Neuroblastom (University of Los Angeles) wurden die Zell-Linien von der American Type Culture Collection (ATCC, Rockville, MD) bezogen und zum Erhalt von konfluenten Monolayerkulturen in RPMI-1640 Bikarbonatmedium (Seromed, Berlin, Deutschland) in einem Zellkulturschrank (5% CO2, 37°C) kultiviert. Mit der Ausnahme der murinen NlH3T3 Fibroblasten sind alle verwendeten Zell-Linien humanen Ursprungs. Die Zellen wurden auf Verunreinigung durch Mycoplasmen untersucht. Das Medium wurde mit 10% hitzeinaktiviertem foetalem Kälberserum (Seromed) and 4 mM Glutamin ergänzt. Die Zellen wurden durch Trypsinierung subkultiviert (0.03% Trypsin enthaltend 0.02% EDTA, dreimal pro Woche). Die Trypsinierung wurde durch Verwendung vom komplettem Zellkulturmedium gestoppt. Die Zellzahl wurde unter Verwendung eines TOA Sysmex Microzellzählers (TOA, Tokyo, Japan) bestimmt.
(§5) 10^4 Zellen/well wurden in Mikrotiterplatten mit 96 Vertiefungen (100 µl Medium) verteilt und die zu testenden Verbindungen wurden in einem weiteren Volumen von 100 µl hinzugegeben. […]

[19] = test system: T47D; assay: Chemosensitivity test (modified MTT test EZ4U); settings: Homo sapiens, T47D, 96 h, read-out: IC50-Werte
Method: as §1, §2, §3

[20] = test system: BxPC3; assay: Chemosensitivity test (modified MTT test EZ4U); settings: Homo sapiens, BXPC-3, 96 h, read-out: IC50-Werte
Source text: as §1, §4, §5

[21] = test system: HT29; assay: Chemosensitivity test (modified MTT test EZ4U); settings: Homo sapiens, HT-29, 96 h, read-out: IC50-Werte
Source text: as §1, §4, §5

[22] = test system: MDA-MB435; assay: Chemosensitivity test (modified MTT test EZ4U); settings: Homo sapiens, MDA-MB-435, 96 h, read-out: IC50-Werte
Source text: as §1, §4, §5

[23] = test system: Colo205; assay: Chemosensitivity test (modified MTT test EZ4U); settings: Homo sapiens, COLO 205, 96 h, read-out: IC50-Werte
Method: as §1, §2, §3

[24] = test system: BT20; assay: Chemosensitivity test (modified MTT test EZ4U); settings: Homo sapiens, BT-20, 96 h, read-out: IC50-Werte
Source text: as §1, §4, §5

Row | SMILES | Keimwachstum (grade) [2] | MHK-Werte [3] | MHK-Werte [5] | MHK-Werte [6] | MHK-Werte [7] | MHK-Werte [8] | MHK-Werte [9] | MHK-Werte [10] | MHK-Werte [11] | MHK-Werte [12] | further results
1 | CC(C)=CCOc1ccccc1C(C)=C(C#N)C#N [L5, 2-{1-[2-(3-Methylbut-2-enyloxy}phenyl]ethyliden}-malononitril] | +++ | – | – | – | – | – | – | – | – | – | Radikalfänger-Effekt [1]: 60%
2 | CC(C)=CCOc1ccc(C(C)=C(C#N)C#N)cc1 [LPK1, 2-{1-[4-(3-Methylbut-2-enyloxy)phenyl]ethyiliden}-malononitril] | – | > 1,5 mg/ml | > 1,5 mg/ml | > 1,5 mg/ml | > 1,5 mg/ml | > 1,5 mg/ml | 0,5-1,0 mg/ml | > 1,5 mg/ml | > 1,5 mg/ml | > 1,5 mg/ml | MHK-Werte [4]: > 1,5 mg/ml
3 | C[C@@H]1[C@H](O)[C@@H](C)/C=C/C=C/CC/C=C/C=C/C=C/C=C/C(O[C@H]2O[C@H](C)[C@@H](O)[C@H](N)[C@@H]2O)CC2O[C@](O)(CC(O)C(O)CCC(O)CC(O)CC(O)CC(=O)O[C@H]1C)CC(O)C2C(=O)O (stereo partly drawn) [Nistatin, reference compound] | – | – | – | – | – | – | – | – | – | 0,05** mg/ml and 0,12** mg/ml | –
4 | CC(=C(C#N)C#N)c1ccc(O)cc1 [OK, 2-[1-(4-Hydroxyphenyl)ethyliden]malonitril] | – | 0,12-0,25 mg/ml | 0,5-1,0 mg/ml | 0,5-1,0 mg/ml | 0,12-0,25 mg/ml | 0,5-1,0 mg/ml | 0,03-0,06 mg/ml | 0,25-0,5 mg/ml | 0,12-0,25 mg/ml | 0,5-1,0 mg/ml | –
5 | COc1cc(C2CC(=O)c3ccccc3O2)ccc1OCC=C(C)C (stereo not drawn) [Q25, 2-[3-Methoxy-4-(3-methylbut-2-enyloxy)phenyl]chroman-4-on] | ++ | – | – | – | – | – | – | – | – | – | IC50 [13]: 84 µg/mL (≈ 248 µM); IC50 [14]: 18 µg/mL (≈ 53.2 µM); IC50 [15]: 8.2 µg/mL (≈ 24.2 µM); IC50 [16]: 6 µg/mL (≈ 17.7 µM); IC50 [17]: 57 µg/mL (≈ 168 µM); IC50 [18]: 15 µg/mL (≈ 44.3 µM); Keimwachstum reduziert auf [2]: 30%; IC50 [19]: 10 µg/mL (≈ 29.6 µM); IC50 [20]: 80 µg/mL (≈ 236 µM); IC50 [21]: 18 µg/mL (≈ 53.2 µM); IC50 [22]: 34 µg/mL (≈ 100 µM); IC50 [23]: 75 µg/mL (≈ 222 µM); IC50 [24]: 45 µg/mL (≈ 133 µM)
